According to patent US10457709B2, “Antimicrobial peptides, their variants and uses” (priority 2015, dated 2019):
≈ marks a conversion by molar mass, not a printed value. Square brackets hold non-standard residues; d marks the D form. Peptide text beside a SMILES is read from it.

Experiments:
S. aureus COL (MRSA) = assay type: cell-based, Staphylococcus aureus
Procedure: (§1) Minimum inhibition concentrations (MICs) were determined against Escherichia coli (ATCC 25922), Staphylococcus aureus (ATCC 25923), Klebsiella pneumoniae (ATCC 10031) and Pseudomonas aeruginosa (ATCC 27853). Also clinical strains of E. coli, K. pneumoniae, E. cloacae, P. aeruginosa, Serratia marcescens, Proteus mirabilis, S. pneumoniae, Acinetobacter baumannii, A. johnsonii and S. aureus were used for MICs assays. Additionally, clinical strains of yeast including Candida albicans, C. glabrata, C. parapsilosis and C. quillermondiae were used. The susceptibility of these microorganisms to Chain peptides were determined using micro broth dilution assay. Colonies of the respective microorganism from Muller Hinton (MH) agar plates incubated overnight were suspended in MH broth media and final concentration of microorganism was adjusted to 5.0×10^5 cfu/ml. An aliquot of 10 μl of each Chain peptide, or gentamicin, tetracycline as reference antibiotics were added in differing concentrations along with 90 μl of bacterial suspension to 96 well polypropylene plates and incubated at 37° C. for 20 to 24 hours. Concentrations of Chain peptides and reference antibiotics ranged from 0.125 to 128 μg/ml and the MICs were recorded as the lowest concentration with no visual growth of bacteria. Similarly, antifungal MICs were tested in Potato dextrose broth.
(§2) Peptides Chain 104, Chain 105, Chain 201, Chain 308, Chain 310 were tested against antibiotic-sensitive strains of S. aureus RN4220 and methicillin resistant strains of S. aureus COL (MRSA). Chain peptides comprising of either L- or D-form amino acids were tested against these bacteria, and the D-form peptides were found have better activity compared to L-form (Table 6). Synergistic activity of chain peptides along with Ertapenem (4 μg/ml) was tested to know whether it will influence the activity against MRSA strains. […] Chain 310 has the best antibacterial activity against the MRSA strains with a MIC of 0.06 & 0.03 μg/ml along with Ertapenem (4 μg/ml) for both forms of L and D-peptides (Table 6).

S. aureus RN4220 = assay type: cell-based, Staphylococcus aureus; settings: antibiotic sensitive strain S. aureus RN4220
Procedure: as §1, §2

[1] = tested on: MRSA strains (S. aureus COL); assay: MIC, synergistic activity with Ertapenem (4 μg/ml); assay type: cell-based, Staphylococcus aureus; settings: S. aureus COL, synergistic activity with 4 μg/ml Ertapenem
Procedure: as §1, §2

[2] = tested on: C. glabrata clinical strains; assay: MIC, clinical yeast strains; assay type: cell-based, Candida glabrata; parameters: unit: µg/ml
Procedure: as §1
(§3) Clinical strains of yeasts including Candida albicans, C. glabrata, C. parapsilosis and C. quillermondiae were also tested with the 12 Chain peptides. The minimum inhibitory concentration (MICs) varied between these peptides and are presented in Tables 4a, 4b, 4c and 5a, 5b, 5c. Peptides Chain 105, 201 and 308 are broad spectrum antimicrobials with MICs between 0.5-32 μg/ml against all the bacteria and yeasts tested, except Serratia marcescens and Proteus mirabilis, against which the MICs were between 64-128 μg/ml. Peptide Chain 306 has narrow spectrum activity against E. coli at 1 μg/ml and for the rest of the bacterial strains at >32 μg/ml (FIG. 10c).

[3] = tested on: Candida albicans clinical strains; assay: MIC, clinical yeast strains; assay type: cell-based; parameters: unit: μg/ml
Procedure: as §1, §3

[4] = tested on: C. parapsilosis clinical strains; assay: MIC, clinical yeast strains; assay type: cell-based, Candida parapsilosis; parameters: unit: µg/ml
Procedure: as §1, §3

[5] = tested on: C. quillermondiae clinical strains; assay: MIC, clinical yeast strains; assay type: cell-based, Candida quillermondiae; parameters: unit: μg/ml; settings: C. quillermondiae clinical yeast strain 1
Procedure: as §1, §3

[6] = tested on: Klebsiella pneumoniae clinical strains; assay type: cell-based; settings: clinical strains
Procedure: as §1, §3

[7] = tested on: Escherichia coli clinical strains; assay type: cell-based; settings: clinical strains
Procedure: as §1, §3

[8] = tested on: Pseudomonas aeruginosa clinical strains; assay type: cell-based; settings: clinical strains
Procedure: as §1, §3

[9] = tested on: Streptococcus pneumoniae clinical strains; assay type: cell-based; settings: clinical strains
Procedure: as §1, §3

[10] = tested on: Serratia marcescens clinical strains; assay type: cell-based; settings: clinical strains
Procedure: as §1, §3

[11] = tested on: Enterobacter cloacae clinical strains; assay type: cell-based; settings: clinical strains
Procedure: as §1, §3

[12] = tested on: Staphylococcus aureus clinical strains; assay type: cell-based; settings: clinical strains
Procedure: as §1, §3

[13] = tested on: Proteus mirabilis clinical strains; assay type: cell-based; settings: clinical strains
Procedure: as §1, §3

[14] = C. glabrata clinical yeast strain 1
[15] = C. glabrata clinical yeast strain 2
[16] = C. glabrata clinical yeast strain 3
[17] = C. glabrata clinical yeast strain 4
[18] = Candida albicans clinical yeast strain 1
[19] = Candida albicans clinical yeast strain 2
[20] = Candida albicans clinical yeast strain 3
[21] = Candida albicans clinical yeast strain 4
[22] = Candida albicans clinical yeast strain 5
[23] = C. parapsilosis clinical yeast strain 1
[24] = C. parapsilosis clinical yeast strain 2
[25] = C. parapsilosis clinical yeast strain 3
[26] = C. parapsilosis clinical yeast strain 4

CC[C@@H](C)[C@@H](NC(=O)[C@@H](CCSC)NC(=O)[C@@H](C)NC(=O)[C@@H](CCCNC(=N)N)NC(=O)[C@@H](Cc1c[nH]c2ccccc12)NC(=O)[C@@H](CCCCN)NC(=O)[C@H](N)CCCNC(=N)N)C(=O)N[C@H](CCCNC(=N)N)C(=O)N[C@H](CC(C)C)C(=O)N[C@H](Cc1c[nH]cn1)C(=O)N[C@H](C)C(=O)N[C@H](CCCCN)C(=O)N[C@H](CCCNC(=N)N)C(=O)N[C@H](CC(C)C)C(=O)N[C@H](CCCNC(=N)N)C(=O)N[C@H](CCCCN)C(=O)O [104 D] (H-[dR][dK][dW][dR][dA][dM][dI][dR][dL][dH][dA][dK][dR][dL][dR][dK]-OH)
Minimum inhibitory concentration (MIC), S. aureus COL (MRSA) (S. aureus COL (MRSA)): 32 µg/mL
Minimum inhibitory concentration (MIC), S. aureus RN4220 (S. aureus RN4220): 64 µg/mL
Minimum inhibitory concentration (MIC), S. aureus COL + 4 μg/ml Ertapenem [1]: 4 µg/mL

CC[C@@H](C)[C@@H](NC(=O)[C@@H](CCSC)NC(=O)[C@@H](C)NC(=O)[C@@H](CCCNC(=N)N)NC(=O)[C@@H](Cc1c[nH]c2ccccc12)NC(=O)[C@@H](CCCCN)NC(=O)[C@H](N)CCCNC(=N)N)C(=O)N[C@H](CCCNC(=N)N)C(=O)N[C@H](CC(C)C)C(=O)N[C@H](Cc1c[nH]cn1)C(=O)N[C@H](C)C(=O)N[C@H](CCCCN)C(=O)N[C@H](Cc1c[nH]c2ccccc12)C(=O)N[C@H](CC(C)C)C(=O)N[C@H](CCCNC(=N)N)C(=O)N[C@H](CCCCN)C(=O)O [105 D] (H-[dR][dK][dW][dR][dA][dM][dI][dR][dL][dH][dA][dK][dW][dL][dR][dK]-OH)
Minimum inhibitory concentration (MIC), S. aureus COL (MRSA) (S. aureus COL (MRSA)): 8 µg/mL
Minimum inhibitory concentration (MIC), S. aureus RN4220 (S. aureus RN4220): 16 µg/mL
Minimum inhibitory concentration (MIC), S. aureus COL + 4 μg/ml Ertapenem [1]: 2 µg/mL

CC[C@@H](C)[C@@H](NC(=O)[C@@H](Cc1c[nH]c2ccccc12)NC(=O)[C@H](N)CCCCN)C(=O)N[C@@H](C(=O)N[C@H](Cc1c[nH]c2ccccc12)C(=O)N[C@H](CCCNC(=N)N)C(=O)N[C@H](Cc1c[nH]c2ccccc12)C(=O)N[C@H](CCCNC(=N)N)C(=O)N[C@H](Cc1ccccc1)C(=O)N[C@H](CCCCN)C(=O)N[C@H](CCCNC(=N)N)C(=O)O)C(C)C [201 D] (H-[dK][dW][dI][dV][dW][dR][dW][dR][dF][dK][dR]-OH)
Minimum inhibitory concentration (MIC), S. aureus COL (MRSA) (S. aureus COL (MRSA)): 2 µg/mL
Minimum inhibitory concentration (MIC), S. aureus RN4220 (S. aureus RN4220): 2 µg/mL
Minimum inhibitory concentration (MIC), S. aureus COL + 4 μg/ml Ertapenem [1]: 1 µg/mL

C[C@@H]1[C@H](O)[C@@H](C)/C=C/C=C/C=C/C=C/C=C/C=C/C=C/[C@H](O[C@@H]2O[C@H](C)[C@@H](O)[C@H](N)[C@@H]2O)C[C@@H]2O[C@](O)(C[C@@H](O)C[C@@H](O)[C@H](O)CC[C@@H](O)C[C@@H](O)CC(=O)O[C@H]1C)C[C@H](O)[C@H]2C(=O)O [Amphotericin B]
Minimum inhibitory concentration [2, 14]: 4
Minimum inhibitory concentration [2, 15]: 4
Minimum inhibitory concentration [2, 16]: 2
Minimum inhibitory concentration [2, 17]: 4
Minimum inhibitory concentration [3, 18]: 2
Minimum inhibitory concentration [3, 19]: 0.5
Minimum inhibitory concentration [3, 20]: 2
Minimum inhibitory concentration [3, 21]: 2
Minimum inhibitory concentration [3, 22]: 2
Minimum inhibitory concentration [4, 23]: 2
Minimum inhibitory concentration [4, 24]: 2
Minimum inhibitory concentration [4, 25]: 2
Minimum inhibitory concentration [4, 26]: 2
Minimum inhibitory concentration [5]: 2

CC(C)C[C@@H](NC(=O)[C@@H](CCCCN)NC(=O)[C@@H](Cc1c[nH]c2ccccc12)NC(=O)[C@@H](CCCCN)NC(=O)[C@@H](C)NC(=O)[C@@H](Cc1c[nH]cn1)NC(=O)[C@@H](CC(C)C)NC(=O)[C@@H](CCCNC(=N)N)NC(=O)[C@@H](Cc1c[nH]c2ccccc12)NC(=O)[C@H](N)Cc1c[nH]c2ccccc12)C(=O)N[C@H](Cc1c[nH]c2ccccc12)C(=O)O [Chain109D] (H-[dW][dW][dR][dL][dH][dA][dK][dW][dK][dL][dW]-OH)
Minimum inhibitory concentration [2, 14]: 128
Minimum inhibitory concentration [2, 15]: 128
Minimum inhibitory concentration [2, 16]: 16
Minimum inhibitory concentration [2, 17]: 64
MIC, Klebsiella pneumoniae strain 1 [6]: 16 µg/mL (≈ 9.94 µM)
MIC, Klebsiella pneumoniae strain 2 [6]: 8 µg/mL (≈ 4.97 µM)
MIC, Klebsiella pneumoniae strain 3 [6]: 8 µg/mL (≈ 4.97 µM)
MIC, Klebsiella pneumoniae strain 4 [6]: 16 µg/mL (≈ 9.94 µM)
MIC, Klebsiella pneumoniae strain 5 [6]: 8 µg/mL (≈ 4.97 µM)
MIC, Escherichia coli strain 1 [7]: 16 µg/mL (≈ 9.94 µM)
MIC, Escherichia coli strain 2 [7]: 4 µg/mL (≈ 2.48 µM)
MIC, Escherichia coli strain 3 [7]: 4 µg/mL (≈ 2.48 µM)
MIC, Escherichia coli strain 4 [7]: 4 µg/mL (≈ 2.48 µM)
MIC, Escherichia coli strain 5 [7]: 4 µg/mL (≈ 2.48 µM)
MIC, Pseudomonas aeruginosa strain 1 [8]: 16 µg/mL (≈ 9.94 µM)
MIC, Pseudomonas aeruginosa strain 2 [8]: 16 µg/mL (≈ 9.94 µM)
MIC, Pseudomonas aeruginosa strain 3 [8]: 16 µg/mL (≈ 9.94 µM)
MIC, Pseudomonas aeruginosa strain 4 [8]: 16 µg/mL (≈ 9.94 µM)
MIC, Pseudomonas aeruginosa strain 5 [8]: 8 µg/mL (≈ 4.97 µM)
MIC, Streptococcus pneumoniae strain 1 [9]: 16 µg/mL (≈ 9.94 µM)
MIC, Streptococcus pneumoniae strain 2 [9]: 8 µg/mL (≈ 4.97 µM)
MIC, Streptococcus pneumoniae strain 3 [9]: 2 µg/mL (≈ 1.24 µM)
MIC, Streptococcus pneumoniae strain 4 [9]: 8 µg/mL (≈ 4.97 µM)
MIC, Streptococcus pneumoniae strain 5 [9]: 8 µg/mL (≈ 4.97 µM)
MIC, Serratia marcescens strain 1 [10]: >128 µg/mL
MIC, Serratia marcescens strain 2 [10]: >128 µg/mL
MIC, Serratia marcescens strain 3 [10]: >128 µg/mL
MIC, Serratia marcescens strain 4 [10]: >128 µg/mL
MIC, Serratia marcescens strain 5 [10]: 64 µg/mL (≈ 39.8 µM)
MIC, Enterobacter cloacae strain 1 [11]: 4 µg/mL (≈ 2.48 µM)
MIC, Enterobacter cloacae strain 2 [11]: 8 µg/mL (≈ 4.97 µM)
MIC, Enterobacter cloacae strain 3 [11]: 8 µg/mL (≈ 4.97 µM)
MIC, Enterobacter cloacae strain 4 [11]: 8 µg/mL (≈ 4.97 µM)
MIC, Enterobacter cloacae strain 5 [11]: 4 µg/mL (≈ 2.48 µM)
MIC, Staphylococcus aureus strain 1 [12]: 2 µg/mL (≈ 1.24 µM)
MIC, Staphylococcus aureus strain 2 [12]: 4 µg/mL (≈ 2.48 µM)
MIC, Staphylococcus aureus strain 3 [12]: 2 µg/mL (≈ 1.24 µM)
MIC, Staphylococcus aureus strain 4 [12]: 2 µg/mL (≈ 1.24 µM)
MIC, Staphylococcus aureus strain 5 [12]: 2 µg/mL (≈ 1.24 µM)
MIC, Proteus mirabilis strain 1 [13]: >128 µg/mL
MIC, Proteus mirabilis strain 2 [13]: 64 µg/mL (≈ 39.8 µM)
MIC, Proteus mirabilis strain 3 [13]: 64 µg/mL (≈ 39.8 µM)
MIC, Proteus mirabilis strain 4 [13]: >128 µg/mL
MIC, Proteus mirabilis strain 5 [13]: >128 µg/mL
Minimum inhibitory concentration [3, 18]: 128
Minimum inhibitory concentration [3, 19]: 128
Minimum inhibitory concentration [3, 20]: 128
Minimum inhibitory concentration [3, 21]: 128
Minimum inhibitory concentration [3, 22]: 128
Minimum inhibitory concentration [4, 23]: 128
Minimum inhibitory concentration [4, 24]: 128
Minimum inhibitory concentration [4, 25]: 128
Minimum inhibitory concentration [4, 26]: 8
Minimum inhibitory concentration [5]: 128
